Measured values taken from US12729192B2, “CDK9 inhibitor and use thereof” (PHARMABLOCK SCIENCES (NANJING), INC., priority 2020, dated 2026).

Assays:
Type in all cases: biochemical
Settings in all cases: 10 μM ATP, 2 h at room temperature
CDK9 = CDK9 (Homo sapiens, UniProt P50750); test: CDK9 kinase activity inhibition (ADP-Glo)
Method: (§1) CDK9 kinase was manufactured by the company or commercially available. CDK1, CDK2 and CDK7 were purchased from Carna Biosciences, Inc. ADP-Glo™ kit was purchased from Promega Corporation. Dithiothreitol (DTT), Tween-20, dimethylsulfoxide (DMSO), bovine serum albumin (BSA) and Tris base were obtained from Sigma at the available highest level of purity.
(§2) General procedures for CDK inhibition determination: The determination was performed in a buffer consisting of 50 μM DTT, 0.1% BSA, 40 mM Tris-HCl pH=7.5 and 20 mM MgCl2. The compound dissolved in DMSO and CDK enzymes were diluted with the buffer. 1 μL of the compound solution in 5% DMSO and 2 μL of the CDK enzyme solution were added to a white low-volume 384-well microtiter plate and incubated for 20 min at room temperature. Ultra pure ATP and the substrate polypeptide (purchased from GenScript Biotech Corporation) were diluted together into the buffer and added to a mixed solution of the compound and the enzyme, 2 μL per well. They were incubated for 2 h at room temperature.
(§3) After the reaction was completed, 5 μL of ADP-Glo™ reagent was added to each well and incubated for 40 min at room temperature, and then 10 μL of test reagent was added to each well and incubated for 30 mi at room temperature. Chemical luminescence values were measured by using a Tecan (Männedorf, Switzerland) multifunctional plate reader Spark for plate reading. The IC50 value of the inhibitor was obtained by fitting the chemical luminescence intensity ratio in the S-shaped dosage reaction curve using Prism 7 (La Jolla, 15 CA) relative to the concentration of the inhibitor.

CDK2 = target: T1, CDK2 (Homo sapiens, UniProt P24941); test: CDK2 kinase activity inhibition (ADP-Glo)
T1 construct: purchased Carna Biosciences, Inc
Method: as §1, §2, §3

CDK7 = target: T2, CDK7 (Homo sapiens, UniProt P50613); test: CDK7 kinase activity inhibition (ADP-Glo)
T2 construct: purchased Carna Biosciences, Inc
T2 sequence (P50613 whole entry): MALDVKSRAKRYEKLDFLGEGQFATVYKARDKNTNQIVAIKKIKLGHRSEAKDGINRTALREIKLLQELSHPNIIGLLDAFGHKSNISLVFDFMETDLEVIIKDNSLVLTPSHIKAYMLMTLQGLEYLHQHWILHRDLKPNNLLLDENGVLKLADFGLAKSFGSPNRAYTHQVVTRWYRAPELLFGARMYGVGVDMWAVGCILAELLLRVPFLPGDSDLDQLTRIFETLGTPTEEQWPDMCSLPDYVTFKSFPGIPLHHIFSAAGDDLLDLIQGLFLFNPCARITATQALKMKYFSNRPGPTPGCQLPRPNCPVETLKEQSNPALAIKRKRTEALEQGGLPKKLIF
T2 sequence (P51946 whole entry partner): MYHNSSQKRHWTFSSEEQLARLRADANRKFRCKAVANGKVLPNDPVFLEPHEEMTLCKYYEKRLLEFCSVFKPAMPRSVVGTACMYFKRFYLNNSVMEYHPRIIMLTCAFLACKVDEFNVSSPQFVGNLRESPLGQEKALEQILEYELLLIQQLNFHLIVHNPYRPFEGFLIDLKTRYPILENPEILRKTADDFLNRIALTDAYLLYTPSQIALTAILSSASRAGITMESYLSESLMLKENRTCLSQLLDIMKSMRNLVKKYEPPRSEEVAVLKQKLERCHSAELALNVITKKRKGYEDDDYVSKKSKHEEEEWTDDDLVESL
T2 sequence (P51948 whole entry partner): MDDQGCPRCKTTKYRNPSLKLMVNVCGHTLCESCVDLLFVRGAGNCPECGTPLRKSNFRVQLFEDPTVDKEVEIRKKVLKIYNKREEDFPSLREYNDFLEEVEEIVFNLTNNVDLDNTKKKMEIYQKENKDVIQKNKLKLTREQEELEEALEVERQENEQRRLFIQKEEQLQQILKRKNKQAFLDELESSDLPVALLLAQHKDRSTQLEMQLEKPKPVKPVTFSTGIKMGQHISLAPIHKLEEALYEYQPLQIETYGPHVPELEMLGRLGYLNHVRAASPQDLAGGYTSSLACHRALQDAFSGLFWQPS
Method: as §1, §2, §3

Chain of CDK9 (P50750 whole entry): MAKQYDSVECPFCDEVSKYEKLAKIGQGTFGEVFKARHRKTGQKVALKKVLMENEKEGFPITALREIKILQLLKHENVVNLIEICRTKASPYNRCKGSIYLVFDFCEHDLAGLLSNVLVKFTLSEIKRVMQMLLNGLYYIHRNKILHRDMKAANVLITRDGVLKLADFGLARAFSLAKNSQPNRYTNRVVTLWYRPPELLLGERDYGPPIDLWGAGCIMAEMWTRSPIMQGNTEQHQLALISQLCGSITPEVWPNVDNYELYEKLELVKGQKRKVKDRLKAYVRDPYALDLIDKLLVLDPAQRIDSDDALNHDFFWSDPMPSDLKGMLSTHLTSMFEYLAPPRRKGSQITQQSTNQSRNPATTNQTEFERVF
Chain of CDK9 (O60563 whole entry partner): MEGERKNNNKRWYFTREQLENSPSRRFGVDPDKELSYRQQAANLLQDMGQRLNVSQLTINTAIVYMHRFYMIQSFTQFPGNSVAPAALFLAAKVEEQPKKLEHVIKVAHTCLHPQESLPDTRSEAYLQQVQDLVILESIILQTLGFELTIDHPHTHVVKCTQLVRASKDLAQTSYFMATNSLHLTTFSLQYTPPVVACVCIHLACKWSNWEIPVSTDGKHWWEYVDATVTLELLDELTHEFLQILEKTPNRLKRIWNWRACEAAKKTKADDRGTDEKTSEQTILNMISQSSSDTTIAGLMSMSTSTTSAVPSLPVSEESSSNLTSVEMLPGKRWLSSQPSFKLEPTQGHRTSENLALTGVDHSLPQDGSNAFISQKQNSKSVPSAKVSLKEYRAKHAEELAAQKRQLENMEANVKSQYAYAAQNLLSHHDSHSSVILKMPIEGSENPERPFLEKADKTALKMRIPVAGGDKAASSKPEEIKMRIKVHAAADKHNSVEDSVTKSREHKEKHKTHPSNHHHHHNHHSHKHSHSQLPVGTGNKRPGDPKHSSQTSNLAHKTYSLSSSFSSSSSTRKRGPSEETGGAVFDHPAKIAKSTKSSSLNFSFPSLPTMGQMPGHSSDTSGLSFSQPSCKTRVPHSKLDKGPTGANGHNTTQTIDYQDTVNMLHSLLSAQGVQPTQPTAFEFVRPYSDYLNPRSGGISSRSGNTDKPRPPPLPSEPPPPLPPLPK

| SMILES | IC50 (CDK9) [nM] | IC50 (CDK2) [nM] | IC50 (CDK7) [nM] |
| --- | --- | --- | --- |
| CC(=O)NC[C@H]1CCC(F)(F)CN1C(=O)c1nc(Nc2cc3[nH]ccc3cn2)ccc1C [Compound 12, (R)—N-((1-(6-((1H-pyrrolo[3,2-c]pyridin-6-yl)amino)-3-methylpyridine-2-carbonyl)-5,5-difluoropiperidin-2-yl)methyl)acetamide] | 163 | > 10000 | > 10000 |
| CC(=O)NC[C@H]1CCC(F)(F)CN1C(=O)c1nc(Nc2cc(C(C)(C)C)sn2)ccc1C [Compound 13, (R)—N-((1-(6-((5-(t-butyl)isothiazol-3-yl)amino)-3-methylpyridine-2-carbonyl)-5,5-difluoropiperidin-2-yl)methyl)acetamide] | 64 | 704 | > 10000 |
| CC(=O)NC[C@H]1CCC(F)(F)CN1C(=O)c1nc(Nc2cc(-c3cnn4c3CCC4)c(F)cn2)ccc1C [Compound 14, (R)—N-((1-(6-((4-(5,6-dihydro-4H-pyrrolo[1,2-b]pyrazol-3-yl)-5-fluoropyridin-2-yl)amino)-3-methylpyridine-2-carbonyl)-5,5-difluoropiperidin-2-yl)methyl)acetamide] | 107 | 1600 | 1880 |
| CC(=O)NC[C@H]1CCC(F)(F)CN1C(=O)c1nc(Nc2cc(OC3CCC3)ccn2)ccc1C [Compound 16, (R)—N-((1-(6-((4-cyclobutoxypyridin-2-yl)amino)-3-methylpyridine-2-carbonyl)-5,5-difluoropiperidin-2-yl)methyl)acetamide] | 54.6 | 6350 | > 10000 |
| CC(=O)NC[C@H]1CCC(F)(F)CN1C(=O)c1nc(Nc2cc(-c3cnn4c3CCC4)ccn2)ccc1C [Compound 18, (R)—N-((1-(6-((4-(5,6-dihydro-4H-pyrrolo[1,2-b]pyrazol-3-yl)pyridin-2-yl)amino)-3-methylpyridine-2-carbonyl)-5,5-difluoropiperidin-2-yl)methyl)acetamide] | 33.6 | 3310 | – |
| CC(=O)NC[C@H]1CCC(F)(F)CN1C(=O)c1nc(Nc2cc(C3CCCC3)ccn2)ccc1C [Compound 20, (R)—N-((1-(6-((4-cyclopentylpyridin-2-yl)amino)-3-methylpyridine-2-carbonyl)-5,5-difluoropiperidin-2-yl)methyl)acetamide] | 44.1 | 1230 | – |
| CC(=O)NC[C@H]1CCC(F)(F)CN1C(=O)c1nc(Nc2cc(N3CCCC3)ccn2)ccc1C [Compound 21, (R)—N-((5,5-difluoro-1-(3-methyl-6-((4-(pyrrolidin-1-yl)pyridin-2-yl)amino)pyridine-2-carbonyl)piperidin-2-yl)methyl)acetamide] | 182 | > 10000 | – |
| CC(=O)NC[C@H]1CCC(F)(F)CN1C(=O)c1nc(Nc2ncccn2)ccc1C [Compound 23, (R)—N-((5,5-difluoro-1-(3-methyl-6-(pyrimidin-2-ylamino)pyridine-2-carbonyl)piperidin-2-yl)methyl)acetamide] | 4620 | > 10000 | – |
| CC(=O)NC[C@H]1CCC(F)(F)CN1C(=O)c1nc(Nc2ccncn2)ccc1C [Compound 25, (R)—N-((5,5-difluoro-1-(3-methyl-6-(pyrimidin-4-ylamino)pyridine-2-carbonyl)piperidin-2-yl)methyl)acetamide] | 218 | > 10000 | – |
| CC(=O)NC[C@H]1CCC(F)(F)CN1C(=O)c1nc(Nc2cnccn2)ccc1C [Compound 26, (R)—N-((5,5-difluoro-1-(3-methyl-6-(pyrazin-2-ylamino)pyridine-2-carbonyl)piperidin-2-yl)methyl)acetamide] | 17.8 | 3610 | – |
| CC(=O)NC[C@H]1CCC(F)(F)CN1C(=O)c1nc(Nc2ncccc2OC(F)(F)F)ccc1C [Compound 29, (R)—N-((5,5-difluoro-1-(3-methyl-6-((3-(trifluoromethoxy)pyridin-2-yl)amino)pyridine-2-carbonyl)piperidin-2-yl)methyl)acetamide] | 5710 | > 10000 | – |
| CCOc1ccnc(Nc2ccc(C)c(C(=O)N3CC(F)(F)CC[C@@H]3CN)n2)c1 [Compound 37, (R)-(2-(aminomethyl)-5,5-difluoropiperidin-1-yl)(6-((4-ethoxypyridin-2-yl)amino)-3-methylpyridin-2-yl)methanone] | 26.6 | 3560 | – |
| Cc1ccc(Nc2cc(OC(F)(F)F)ccn2)nc1C(=O)N1CCCC(F)(F)CC1 [Compound 38, (4,4-Difluoroazepin-1-yl)(3-methyl-6-((4-(trifluoromethoxy)pyridin-2-yl)amino)pyridin-2-yl)methanone] | 267 | 447 | – |
| CC(=O)NC[C@H]1CCCCN1C(=O)c1nc(Nc2cc(OC(F)(F)F)ccn2)ccc1C [Compound 45, (R)—N-((1-(3-methyl-6-((4-(trifluoromethoxy)pyridin-2-yl)amino)pyridine-2-carbonyl)piperidin-2-yl)methyl)acetamide] | 19.9 | 884 | – |
| CC(=O)N[C@@H]1C[C@H](NC(=O)c2nc(Nc3cc(OC(F)(F)F)ccn3)ccc2C)CC(F)(F)C1 [Compound 50, N-((1S,5R)-5-acetamido-3,3-difluorocyclohexyl)-3-methyl-6-((4-4-trifluoromethoxypyridin-2-yl)amino)pyridine-2-carbonylamide] | 573 | > 10000 | – |
| CNC(=O)c1ccnc(Nc2ccc(C)c(C(=O)N3CC(F)(F)CC[C@@H]3CNC(C)=O)n2)c1 [Compound 55, (R)-2-((6-(2-(acetamidomethyl)-5,5-difluoropiperidine-1-carbonyl)-5-methylpyridin-2-yl)amino)-N-methyl isonicotinamide] | 28.3 | > 10000 | – |
| CC(=O)NC[C@H]1CCC(F)(F)CN1S(=O)(=O)c1cc(Nc2cc(OC(F)(F)F)ccn2)ccc1C [Compound 58, (R)—N-((5,5-difluoro-1-((2-methyl-5-((4-(trifluoromethoxy)pyridin-2-yl)amino)phenyl)sulfonyl)piperidin-2-yl)methyl)acetamide] | > 10000 | > 10000 | – |

Further lines, results first:

| IC50 (CDK9) [nM] | IC50 (CDK2) [nM] | IC50 (CDK7) [nM] | SMILES |
| --- | --- | --- | --- |
| 34.8 | 361 | – | CC(=O)N[C@@H]1CN(C(=O)c2nc(Nc3cc(OC(F)(F)F)ccn3)ccc2C)CC(F)(F)C1 [Compound 42, (S)—N-(5,5-difluoro-1-(3-methyl-6-((4-(trifluoromethoxy)pyridin-2-yl)amino)pyridine-2-carbonyl)piperidin-3-yl)acetamide] |
| 167 | > 10000 | – | CC(=O)N[C@H]1CN(C(=O)c2nc(Nc3cc(OC(F)(F)F)ccn3)ccc2C)CC(F)(F)C1 [Compound 43, (R)—N-(5,5-difluoro-1-(3-methyl-6-((4-(trifluoromethoxy)pyridin-2-yl)amino)pyridine-2-carbonyl)piperidin-3-yl)acetamide] |
| 23 | 679 | – | CC(=O)NCC1CCC(F)(F)CN1C(=O)c1nc(Nc2cc(OC(F)(F)F)ccn2)ccc1C (centres unmarked) [Compound 44, N-((5,5-difluoro-1-(3-methyl-6-((4-(trifluoromethoxy)pyridin-2-yl)amino)pyridine-2-carbonyl)piperidin-2-yl)methyl)acetamide] |
| 107 | 3210 | – | CCNC(=O)C1CCC(F)(F)CN1C(=O)c1nc(Nc2cc(OC(F)(F)F)ccn2)ccc1C (centres unmarked) [Compound 49, N-ethyl-5,5-difluoro-1-(3-methyl-6-((4-(trifluoromethoxy)pyridin-2-yl)amino)pyridine-2-carbonyl)piperidine-2-carboxamide] |
| 14.6 | 658 | – | CC(=O)N(C)C[C@H]1CCC(F)(F)CN1C(=O)c1nc(Nc2cc(OC(F)(F)F)ccn2)ccc1C [Compound 52, (R)—N-((5,5-difluoro-1-(3-methyl-6-((4-(trifluoromethoxy)pyridin-2-yl)amino)pyridine-2-carbonyl)piperidin-2-yl)methyl)-N-methylacetamide] |
| 531 | > 10000 | – | CC(=O)NC[C@H]1CCC(F)(F)CN1Cc1nc(Nc2cc(OC(F)(F)F)ccn2)ccc1C [Compound 62, (R)—N-((5,5-difluoro-1-((3-methyl-6-((4-(trifluoromethoxy)pyridin-2-yl)amino)pyridin-2-yl)methyl)piperidin-2-yl)methyl)acetamide] |
| 647 | 1260 | – | CC(C)(C)OC(=O)NC[C@H]1CCC(F)(F)CN1C(=O)c1nc(Nc2cc(OC(F)(F)F)ccn2)ccc1F [Compound 66] |
| 1310 | > 10000 | – | CC(=O)NC[C@H]1CCC(F)(F)CN1C(=O)c1cc(Nc2cc(OC(F)(F)F)ccn2)ncc1C [Compound 72, (R)—N-((5,5-difluoro-1-(5-methyl-2-((4-(trifluoromethoxy)pyridin-2-yl)amino)isonicotinoyl)piperidin-2-yl)methyl)acetamide] |
| 18.4 | 5780 | – | CC(=O)NC[C@H]1CCC(F)(F)CN1C(=O)c1nc(Nc2cc(OC(F)(F)F)ccn2)ncc1C [Compound 76, (R)—N-((5,5-difluoro-1-(5-methyl-2-((4-(trifluoromethoxy)pyridin-2-yl)amino)pyrimidine-4-carbonyl)piperidin-2-yl)methyl)acetamide] |
